Reference: patent US9302999B2, “Substituted triazoles as herbicides” (E. I. DU PONT DE NEMOURS AND COMPANY, priority 2012, dated 2016)

Key:
Type in all cases: in vivo
[1] = test system: johnsongrass (Sorghum halepense); assay: Test C pre-/postemergence: johnsongrass
Method in brief: (§1)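 Preemergence on seeds in loam/sand, postemergence on 2–18 cm (1–4-leaf) plants in peat-based medium; compounds in non-phytotoxic solvent with surfactant. After 13–15 days in greenhouse, visual rating versus controls, 0 (no effect) to 100 (complete control).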

rice (Oryza sativa) = assay: Test B flooded paddy: rice; settings: Flood; 250 g ai/ha; applied to paddy water at 2-leaf stage; visually evaluated after 13 to 15 days
Method in brief: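 Visual ratings on a 0–100 scale, where 0 means no effect and 100 means complete control, were assigned by comparison with controls 13 to 15 days after treatment. Compounds went into paddy water over 2-leaf plants flooded to 3 cm.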

[2] = test system: pigweed (Amaranthus retroflexus); assay: Test D pre-/postemergence: pigweed
Method in brief: (§2)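 Pre- and postemergence herbicide screen. Soil for pre: silt loam; post medium: peat moss, vermiculite, wetting agent, starter nutrients. Plant stage at post: 1- to 4-leaf. Readout: visual % control, 14–21 days.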

[3] = test system: field violet (Viola arvensis); assay: Test D pre-/postemergence: field violet; settings: Postemergence
Method in brief: as §2

[4] = test system: galium (catchweed bedstraw, Galium aparine); assay: Test C pre-/postemergence: galium
Method in brief: as §1

[5] = test system: windgrass (Apera spica-venti); assay: Test C postemergence: windgrass
Method in brief: (§3)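 Visual 0–100 injury score vs untreated controls (0 none, 100 complete control), taken 13–15 d after treatment. Postemergence spray on potted plants, 2–18 cm, 1–4 leaves; greenhouse.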

[6] = test system: canarygrass (Phalaris minor); assay: Test C postemergence: canarygrass
Method in brief: as §3

[7] = Postemergence, 31 g ai/ha, scale 0 to 100 (0 no effect, 100 complete control)
[8] = Postemergence, 62 g ai/ha, scale 0 to 100 (0 no effect, 100 complete control)
[9] = Postemergence, 125 g ai/ha, scale 0 to 100, 0 no effect, 100 complete control
[10] = Postemergence, 250 g ai/ha, scale 0 to 100 (0 no effect, 100 complete control)
[11] = Preemergence, 125 g ai/ha, scale 0 to 100, 0 no effect, 100 complete control
[12] = Preemergence, 250 g ai/ha, scale 0 to 100, 0 no effect, 100 complete control
[13] = 31 g ai/ha, scale 0 to 100 (0 no effect, 100 complete control)
[14] = 62 g ai/ha, scale 0 to 100 (0 no effect, 100 complete control)
[15] = 125 g ai/ha, scale 0 to 100, 0 no effect, 100 complete control
[16] = 250 g ai/ha, scale 0 to 100 (0 no effect, 100 complete control)

CCOc1nn(-c2ccc(F)cc2)nc1Cc1ccnc(C(F)F)c1 [Compound 195]
Plant response rating, Johnsongrass [1, 7]: 55 | Plant response rating, Johnsongrass [1, 8]: 80 | Plant response rating, Johnsongrass [1, 9]: 95 | Plant response rating, Johnsongrass [1, 10]: 95 | Plant response rating, Johnsongrass [1, 11]: 98 | Plant response rating, Johnsongrass [1, 12]: 100 | Plant response rating, Rice (0 to 100 scale, 0 is no effect, 100 is complete control) (rice (Oryza sativa)): 60 | Plant response rating: Pigweed [2, 7]: 65 | Plant response rating: Pigweed [2, 8]: 75 | Plant response rating: Pigweed [2, 9]: 80 | Plant response rating: Pigweed [2, 10]: 95 | Plant response rating, Pigweed ([2]; Postemergence, 16 g ai/ha, scale 0 to 100): 60 | Plant response rating, Pigweed ([2]; Preemergence, 16 g ai/ha, scale 0 to 100 (0 no effect, 100 complete control)): 60 | Plant response rating, Pigweed ([2]; Preemergence, 31 g ai/ha, scale 0 to 100 (0 no effect, 100 complete control)): 60 | Plant response rating, Pigweed ([2]; Preemergence, 62 g ai/ha, scale 0 to 100): 60 | Plant response rating, Pigweed ([2]; Preemergence, 125 g ai/ha, scale 0 to 100): 100 | Plant response rating, Pigweed ([2]; Preemergence, 250 g ai/ha, scale 0 to 100): 95 | Plant response rating: Field Violet [3, 13]: 70 | Plant response rating: Field Violet [3, 14]: 75 | Plant response rating: Field Violet [3, 15]: 85 | Plant response rating: Field Violet [3, 16]: 95 | Plant response rating, Field Violet ([3]; 16 g ai/ha, scale 0 to 100): 70 | Plant response rating, Galium [4, 7]: 80 | Plant response rating, Galium [4, 8]: 95 | Plant response rating, Galium [4, 9]: 95 | Plant response rating, Galium [4, 10]: 95 | Plant response rating, Galium ([4]; Preemergence, 31 g ai/ha, scale 0 (no effect) to 100 (complete control)): 10 | Plant response rating, Galium ([4]; Preemergence, 62 g ai/ha, scale of 0 to 100, 0 is no effect, 100 is complete control): 80 | Plant response rating, Galium [4, 11]: 90 | Plant response rating, Galium [4, 12]: 95 | Plant response rating, Windgrass [5, 13]: 55 | Plant response rating, Windgrass [5, 14]: 80 | Plant response rating, Windgrass [5, 15]: 95 | Plant response rating, Windgrass [5, 16]: 100 | Plant response rating, Canarygrass [6, 13]: 40 | Plant response rating, Canarygrass [6, 14]: 60 | Plant response rating, Canarygrass [6, 15]: 85 | Plant response rating, Canarygrass ([6]; 250 g ai/ha, scale 0 to 100): 100
